Measurements published in PubChem BioAssay (NCI).
Where “and” joins values, the source holds several entries; their conditions need not be identical. Equal values may be shown once.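 Compound exposure: 48 hours, 5 concentrations, 96-well plates. At the GI50, growth is halved. At the TGI there is no net growth.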

Columns and labels:
Assay in all cases: NCI anticancer screen, dose series, 48 h
COLO 205 colon = test system: COLO 205 colon
EKVX NSCLC = test system: EKVX NSCLC
HL-60(TB) leukemia = test system: HL-60(TB) leukemia
HT29 colon = test system: HT29 colon
M14 melanoma = test system: M14 melanoma
NCI-H23 lung = test system: NCI-H23 lung
SNB-75 CNS = test system: SNB-75 CNS
SK-MEL-5 melanoma = test system: SK-MEL-5 melanoma
MCF7 breast = test system: MCF7 breast
T-47D breast = test system: T-47D breast

Row | Compound | TGI (COLO 205 colon) [µM] | TGI (EKVX NSCLC) [µM] | TGI (HL-60(TB) leukemia) | TGI (HT29 colon) [µM] | TGI (M14 melanoma) [µM] | TGI (NCI-H23 lung) [µM] | TGI (SNB-75 CNS) [µM] | TGI (SK-MEL-5 melanoma) [µM] | GI50 (COLO 205 colon) [µM] | GI50 (EKVX NSCLC) [µM] | GI50 (HL-60(TB) leukemia) [µM] | GI50 (HT29 colon) [µM] | GI50 (M14 melanoma) [µM] | GI50 (NCI-H23 lung) [µM] | GI50 (SK-MEL-5 melanoma) [µM] | GI50 (SNB-75 CNS) [µM] | GI50 (MCF7 breast) [µM] | TGI (MCF7 breast) [µM] | GI50 (T-47D breast) [µM] | TGI (T-47D breast) [µM]
1 | CC(NC(=O)C(=O)N/N=C1\C[C@@H](c2ccccc2)Nc2ccccc21)c1ccccc1 (some centres not stated) | > 100 | > 100 | > 100 µM | > 100 | > 100 | > 100 | > 100 | – | – | – | – | – | – | – | – | – | – | – | – | –
2 | Cn1c(=O)c(C(=O)NC(=O)NCCCCCOC(=O)CCCCCCCCCCC(=O)OCCCCCNC(=O)NC(=O)c2cn(Cc3ccccc3)c(=O)n(C)c2=O)cn(Cc2ccccc2)c1=O | > 100 | > 100 | > 100 µM | > 100 | > 100 | > 100 | > 100 | > 100 | – | – | – | – | – | – | – | – | – | – | – | –
3 | CC1(C(=O)O)CCOc2ccccc21 (configuration not stated) | > 100 | > 100 | > 100 µM | > 100 | > 100 | > 100 | > 100 | > 100 | – | – | – | – | – | – | – | – | – | – | – | –
4 | COC12CCC(C(C(=O)c3ccccc3)=C1C(=O)c1ccccc1)C(O)C2 (configuration not stated) | > 100 | > 100 | > 100 µM | > 100 | > 100 | > 100 | > 100 | > 100 | – | – | – | – | – | – | – | – | – | – | – | –
5 | Cc1c(-c2nnc(-c3ccccc3)o2)c(=O)n(-c2ccccc2)n1C | > 100 | > 100 | > 100 µM | > 100 | > 100 | > 100 | > 100 | – | – | – | – | – | – | – | – | – | – | – | – | –
6 | CC(C)C(=O)[O-].CC(C)C(=O)[O-].N.N.N.N.[Co+3].[O-][Cl+3]([O-])([O-])[O-] | > 100 | > 100 | > 100 µM | > 100 | > 100 | > 100 | > 100 | > 100 | > 100 | > 100 | > 100 | > 100 | > 100 | > 100 | > 100 | > 100 | – | – | – | –
7 | NCc1c(C(N)=O)ncn1Cc1ccccc1 | > 100 | > 100 | > 100 µM | > 100 | > 100 | > 100 | > 100 | > 100 | – | – | – | – | – | – | – | – | – | – | – | –
8 | CCCCCCCCCCCCCCCCCCOc1ccccc1CC(=O)NCC[N+](C)(C)C | – | 66 | – | 26.7 | > 100 | 35.4 | 8.9 | 45.8 | – | 18 | – | 3.09 | 3.14 | 5.07 | 6.59 | 1.98 | 3.77 | 34.9 | 7.6 | 58.9
9 | CCOC(=O)N1C(c2ccccc2)C=CC(c2ccccc2)N1C(=O)OCC (configuration not stated) | > 100 | > 100 | – | > 100 | – | > 100 | > 100 | > 100 | – | – | – | – | – | – | – | – | – | – | – | –
10 | O=C(Nc1ccc(Br)cc1)C(=O)C(C(=O)c1ccccc1F)C1OC(=O)c2ccccc21 (configuration not stated) | 45.2 | > 100 | 75.6 µM | > 100 | 43.9 | 43.6 | 51.6 | 87.1 | – | – | – | – | – | – | – | – | – | – | – | –
11 | CCOC(=O)C1=C(Nc2ccc(Br)cc2)OC/C1=N\NC(=O)c1ccccc1O | > 100 | > 93.9 | 37.2 µM | > 100 | > 100 | 33.1 | > 48.3 | > 100 | – | – | – | – | – | – | – | – | – | – | – | –
12 | CC1CCCc2c1c1ccc3c(O)cccc3c1oc2=O (configuration not stated) | > 100 | 85.9 | > 100 µM | > 100 | > 100 | > 100 | 21.8 | – | – | – | – | – | – | – | – | – | – | – | – | –
13 | N#Cc1ccc(Oc2cccc(Oc3ccccc3)c2)cc1C#N | > 100 | > 100 | > 100 µM | > 100 | > 100 | > 100 | 31.6 | > 100 | > 100 | – | – | > 100 | > 100 | – | – | – | – | – | – | –
14 | CCCCn1c2ccccc2c2ccc3c(c21)C(=O)C=CC3=O | > 100 | – | – | 3.46 | > 100 | > 100 | 0.638 | > 100 | – | – | – | – | – | – | – | – | – | – | – | –
15 | O=C(Nc1nc2ccc([N+](=O)[O-])cc2s1)C(=O)C(C(=O)c1ccncc1)C1OC(=O)c2ccccc21 (configuration not stated) | > 100 | > 100 | > 100 µM | > 100 | > 100 | > 100 | > 100 | – | – | – | – | – | – | – | – | – | – | – | – | –
16 | CC(=O)[O-].[Zn].c1ccc(/C(=N\Nc2ccccn2)c2ccccn2)cc1 | – | 2.84 | 0.0048 µM and 0.0138 µM | 4.13 | 1.43 | 19.3 | 2.63 | 1.59 | – | 0.0465 | – | 1.09 | 0.0468 | – | 0.447 | – | – | – | – | –
17 | COc1nc2c(nc(N)n2C2OCC(O)C(O)C2O)c(=O)n1C (configuration not stated) | > 100 | > 100 | > 100 µM | > 100 | > 100 | > 100 | > 100 | > 100 | – | – | – | – | – | – | – | – | – | – | – | –

Row | Compound | TGI (COLO 205 colon) [µM] | TGI (EKVX NSCLC) [µM] | TGI (HL-60(TB) leukemia) | TGI (HT29 colon) [µM] | TGI (M14 melanoma) [µM] | TGI (NCI-H23 lung) [µM] | TGI (SNB-75 CNS) [µM] | TGI (SK-MEL-5 melanoma) [µM] | GI50 (COLO 205 colon) [µM] | GI50 (EKVX NSCLC) [µM] | GI50 (HL-60(TB) leukemia) [µM] | GI50 (HT29 colon) [µM] | GI50 (M14 melanoma) [µM] | GI50 (NCI-H23 lung) [µM] | GI50 (SK-MEL-5 melanoma) [µM] | GI50 (SNB-75 CNS) [µM] | GI50 (MCF7 breast) [µM] | TGI (MCF7 breast) [µM] | GI50 (T-47D breast) [µM] | TGI (T-47D breast) [µM]
18 | C=C1CCCC2[C@](C)(CC3=C(O)C(=O)C=C(OC)C3=O)[C@@H](C)CC[C@]12C (some centres not stated) | 21.2 | > 100 | 9.59 µM | 36.1 | 5.03 | 12.5 | > 100 | 9.35 | – | – | – | – | – | – | – | – | – | – | – | –
19 | O=c1cccccc1[O-].O=c1cccccc1[O-].O=c1cccccc1[O-].[Ce+3] | – | > 100 | 89 µM | > 100 | > 100 | 86.1 | – | 38.8 | – | – | – | – | – | – | – | – | – | – | – | –
20 | Cn1ccnc1CCc1ccc(Cl)c(Cl)c1 | > 100 | – | > 100 µM | > 100 | > 100 | > 100 | > 100 | > 100 | – | – | – | – | – | – | – | – | – | – | – | –
21 | CCOC(=O)c1ccc(N2C(=O)Cc3ccccc3C2=O)cc1 | – | > 100 | – | > 100 | – | > 100 | > 100 | > 100 | – | – | – | – | – | – | – | – | – | – | – | –
22 | Cc1ccccc1C(=O)Oc1ccc(OCc2ccccc2)cc1 | > 100 | > 100 | > 100 µM | > 100 | > 100 | > 100 | > 100 | > 100 | – | – | – | – | – | – | – | – | – | – | – | –
23 | O=[N+]([O-])c1ccc([N+]2=NC(c3ccccc3)=NN(c3ccccc3)C2)cc1 | > 100 | – | > 100 µM | > 100 | > 100 | > 100 | > 100 | > 100 | – | – | – | – | – | – | – | – | – | – | – | –
24 | N#C/C(=C\c1c(-c2ccccc2)[nH]c2ccccc12)C(=O)c1ccccc1 | > 100 | > 100 | – | > 100 | > 100 | > 100 | 34 | – | 5.02 | 9.97 | – | 3.41 | 4.78 | 16 | – | 3.2 | 3.95 | > 100 | 5.27 | > 100
25 | COc1ccc(-c2ccc(-c3ccc(C(=N)N)cn3)o2)cc1Cl | 3.18 | 4.26 | 5.36 µM | 3.78 | 3.19 | 4.04 | 3.51 | 2.97 | 1.66 | 2 | 2.29 | 1.87 | 1.67 | 1.92 | 1.6 | 1.66 | – | – | – | –
26 | CCOC(=O)C(C)(C)Oc1ccc2c(-c3ccc(Cl)cc3)c(-c3ccc(Cl)cc3)c(=O)oc2c1 | > 100 | > 100 | > 100 µM | > 100 | > 100 | > 100 | > 100 | > 100 | – | – | – | – | – | – | – | – | – | – | – | –
27 | CC(=O)OC1CCC2C(=CCC3C2(C)C(=O)CC2(C)C(C4(C)OC(C(C)C)=CC4=O)C(O)CC32C)C1(C)C (configuration not stated) | > 100 | > 100 | – | 32.3 | 50.9 | > 100 | > 100 | 56.9 | – | – | – | – | – | – | – | – | – | – | – | –
28 | CC(=O)/C=C1\CC(=O)Nc2ccccc2N1 | – | > 100 | > 100 µM | > 100 | > 100 | > 100 | > 100 | > 100 | – | – | – | – | – | – | – | – | – | – | – | –
29 | S=c1sc2cscc2s1 | 40.9 | 35.5 | 81.5 µM | > 100 | 39.9 | 97.7 | 35.8 | 70.6 | – | – | – | – | – | – | – | – | – | – | – | –
30 | CS/C(c1ccccc1)=[N+](\[O-])Cc1ccccc1 | > 100 | > 100 | > 100 µM | > 100 | > 100 | > 100 | > 100 | > 100 | – | – | – | – | – | – | – | – | – | – | – | –
31 | O=C(NC1C2CC3CC(C2)CC1C3)/C(Cl)=C1/Sc2ccccc2NC1=O (configuration not stated) | > 100 | > 100 | > 100 µM | > 100 | > 100 | > 100 | > 100 | > 100 | – | – | – | – | – | – | – | – | – | – | – | –
32 | O=C(O)c1ccccc1N=Nc1ccc2oc(=O)c(C(=O)Nc3ccccc3)cc2c1 | > 100 | > 100 | 66.9 µM | > 100 | > 100 | > 100 | 98.3 | 76.8 | – | – | – | – | – | – | – | – | – | – | – | –
33 | C=C(CNC(=O)c1ccccc1)c1ccc(C(=O)Nc2ccccc2N)cc1 | > 100 | > 100 | – | > 100 | – | > 100 | – | 14.9 | 5.88 | > 100 | – | 3.86 | – | 18.7 | 2.67 | – | 3.2 | > 100 | 4.99 | > 100
34 | O=C1C(=O)N(c2nccs2)C(=O)C(=O)C1c1nc2ccccc2s1 | > 100 | > 100 | – | > 100 | > 100 | > 100 | > 100 | – | – | – | – | – | – | – | – | – | – | – | – | –
